Biological target: T1, AXOR109 (Homo sapiens, UniProt Q8TDU6)
T1 construct: expressed in transfected cells; host or cells: melanophore cells, transfected by electroporation
T1 sequence (Q8TDU6 1-330): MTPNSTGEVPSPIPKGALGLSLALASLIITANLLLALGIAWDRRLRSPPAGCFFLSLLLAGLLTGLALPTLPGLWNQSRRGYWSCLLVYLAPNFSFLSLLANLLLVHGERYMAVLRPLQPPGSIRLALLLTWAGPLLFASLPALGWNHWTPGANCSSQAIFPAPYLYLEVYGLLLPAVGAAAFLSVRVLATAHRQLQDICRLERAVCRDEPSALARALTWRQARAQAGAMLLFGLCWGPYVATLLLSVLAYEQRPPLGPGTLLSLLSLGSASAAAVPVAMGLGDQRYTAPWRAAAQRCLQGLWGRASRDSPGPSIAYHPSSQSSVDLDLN
Test: Human AXOR109/Melanophore Assay
Assay type: cell-based
Details: melanophore assay; for EC50: AXOR109 transfected melanophores; for % Max / Emax: normalized to alpha-MSH system max; for Emax: 1 h
Experimental: AXOR109 is a Gs-coupled receptor and therefore increases intracellular cAMP leading to melanosome dispersion. Compounds of the present invention were characterized in a melanophore assay as described in Jayawickreme C K, et al., Current Protocols in Pharmacology (2005) 12.9.1-12.9.16. Briefly, melanophore cells are transfected by electroporation with AXOR109 expressing cDNA. Cells are then plated in 384 well clear bottom plates at 8E3 cells per well in 50 μl of conditioned fibroblast media (CFM). Compounds to be tested are serially diluted 3-fold in DMSO and further diluted 1:100 with melanophore assay buffer (MAB)+10 nM Melatonin to yield 11 point concentration response curves. Following 2 hour incubation with MAB+1% DMSO+10 nM Melatonin, initial transmittance is read on a TwisterII/Spectramax plate reader. Compounds are then added to the cells and incubated for 1 hour, and final transmittance is read as before. Results are compared to vehicle (MAB+1% DMSO+10 nM Melatonin) and to a positive control (MAB+1% DMSO+10 nM Melatonin+200 nM alpha-MSH). Data are calculated for each well as follows: 1-(Transmitance-final/Transmitance-initial). Each well result is then normalized to alpha-MSH, the system max control for Gs/Gq coupled receptors using the following equation: (ObjX−Control1)/(Control2−Control1)*100. The percent system max is used to generate the pEC50 using the equation: y=((Vmax*x̂n)/(K̂n+x̂n))+Y2. Acceptable Z-prime values should be >0.4. Compounds of the present invention have a pEC50≧5.0 in the above described assay.

With `COc1ccc(S(=O)(=O)N2C[C@@H](C)N(S(=O)(=O)c3ccc(OC)c(OC)c3)[C@@H](C)C2)cc1OC` [Example 54, (2R,6S)-1,4-bis{[3,4-bis(methyloxy)phenyl]sulfonyl}-2,6-dimethylpiperazine] as the compound, how does the EC50 read?
Its EC50 is 126 to 1000 nM.

And the “% Max” value?
The value was “* (“*” = 0% to 50%)”.

How did the Emax turn out when `COc1cccc(S(=O)(=O)N2[C@H](C)CN(S(=O)(=O)c3ccc(OC)c(OC)c3)C[C@@H]2C)c1` [Example 80] was run?
The Emax was 51 to 75%.

And the EC50?
Its EC50 is 1260 to 10000 nM.

With `COc1ccc(S(=O)(=O)N2[C@H](C)CN(S(=O)(=O)c3ccc(-c4cnco4)cc3)C[C@@H]2C)cc1OC` [Example 34, 1-{[3,4-bis(methyloxy)phenyl]sulfonyl}-2,6-cis-dimethyl-4-{[4-(1,3-oxazol-5-yl)phenyl]sulfonyl}piperazine] as the compound, how does the Emax read?
The Emax was 51 to 75%.

What about the EC50 of the same compound?
The EC50 was 1260 to 10000 nM.

What does the source list for `COc1ccc(S(=O)(=O)N2CCN(S(=O)(=O)c3ccc(OC)c(OC(F)(F)F)c3)CC2)cc1OC` [Example 91]?
Emax: 76 to 100%; EC50: 126 to 1000 nM

With `COc1ccc(S(=O)(=O)N2C[C@@H](C)N(S(=O)(=O)c3ccc(OC)c(OC(F)(F)F)c3)[C@@H](C)C2)cc1OC` [Example 36, 4-{[3,4-bis(methyloxy)phenyl]sulfonyl}-2,6-cis-dimethyl-1-({4-(methyloxy)-3-[(trifluoromethyl)oxy]phenyl}sulfonyl)piperazine] as the compound, how does the Emax read?
The Emax was 51 to 75%.

What about the EC50 of the same compound?
Its EC50 is 126 to 1000 nM.

How did the Emax turn out when `COc1ccc(S(=O)(=O)N2CCN(S(=O)(=O)c3ccc(OC)c(OC)c3)CC(F)C2)cc1OC` [Example 52, 1,4-bis{[3,4-bis(methyloxy)phenyl]sulfonyl}-6-fluorohexahydro-1H-1,4-diazepine] was run?
Its Emax is 76 to 100%.

And the EC50?
Its EC50 is 126 to 1000 nM.

With `COc1ccc(S(=O)(=O)N2[C@H](C)CN(S(=O)(=O)c3ccc(OC)c(OC)c3)C[C@@H]2C)cc1O` [Example 38, 5-[(4-{[3,4-bis(methyloxy)phenyl]sulfonyl}-2,6-cis-dimethyl-1-piperazinyl)sulfonyl]-2-(methyloxy)phenol] as the compound, how does the Emax read?
The Emax was 51 to 75%.

What about the EC50 of the same compound?
The EC50 was 1260 to 10000 nM.

What does the source list for `COc1ccc(S(=O)(=O)N2CC(C)(C)N(S(=O)(=O)c3ccc(OC)c(OC)c3)CC2=O)cc1OC` [Example 48, 1,4-bis{[3,4-bis(methyloxy)phenyl]sulfonyl}-5,5-dimethyl-2-piperazinone]?
Emax: 76 to 100%; EC50: 1260 to 10000 nM

For `COc1ccc(S(=O)(=O)N2C[C@@H]3C[C@H]2CN3S(=O)(=O)c2ccc(OC)c(OC)c2)cc1OC` [Example 86], which Emax is on record?
The Emax was 76 to 100%.

And the EC50?
The EC50 was 1260 to 10000 nM.

How did the Emax turn out when `CC[C@@H]1CN(S(=O)(=O)c2ccc(OC)c(OC)c2)[C@@H](CC)CN1S(=O)(=O)c1ccc(OC)c(OC)c1` [Example 45, (2R,5S)-1,4-bis{[3,4-bis(methyloxy)phenyl]sulfonyl}-2,5-diethylpiperazine] was run?
The Emax was 76 to 100%.

And the EC50?
Its EC50 is 1260 to 10000 nM.

Which results are given for `COc1ccc(S(=O)(=O)N2CCN(S(=O)(=O)c3ccc(OC)c(OC)c3)CC2)cc1` [Example 6, 1-{[3,4-bis(methyloxy)phenyl]sulfonyl}-4-{[4-(methyloxy)phenyl]sulfonyl}piperazine]?
Emax: 0 to 50%; EC50: 126 to 1000 nM

Which Emax does the source give for `COc1ccc(S(=O)(=O)N2CCN(S(=O)(=O)c3ccc(OC)c(OC)c3)CC(=O)C2)cc1OC` [Example 51, 1,4-bis{[3,4-bis(methyloxy)phenyl]sulfonyl}hexahydro-6H-1,4-diazepin-6-one] here?
Its Emax is 76 to 100%.

What about the EC50 of the same compound?
The EC50 was 1260 to 10000 nM.

For `COc1ccc(S(=O)(=O)N(C)C[C@@H]2CCCN2S(=O)(=O)c2ccc(OC)c(OC)c2)cc1OC` [Example 94, N-[((2S)-1-{[3,4-bis(methyloxy)phenyl]sulfonyl}-2-pyrrolidinyl)methyl]-N-methyl-3,4-bis(methyloxy)benzenesulfonamide], which Emax is on record?
The Emax was 76 to 100%.

What about the EC50 of the same compound?
The EC50 was 1260 to 10000 nM.

How did the Emax turn out when `COc1ccc(S(=O)(=O)N2C[C@@H](C)N(S(=O)(=O)c3ccc(OC)c(OC)c3)[C@@H](C)C2)cc1F` [Example 32, 1-{[3,4-bis(methyloxy)phenyl]sulfonyl}-4-{[3-fluoro-4-(methyloxy)phenyl]sulfonyl}-2,6-cis-dimethylpiperazine] was run?
Its Emax is 51 to 75%.

What about the EC50 of the same compound?
Its EC50 is 126 to 1000 nM.

`COc1ccc(S(=O)(=O)N2C[C@H](C)N(S(=O)(=O)c3ccc(OC)c(OC)c3)C[C@@H]2C)cc1OC` [Example 47, (2S,5S)-1,4-bis{[3,4-bis(methyloxy)phenyl]sulfonyl}-2,5-dimethylpiperazine] was tested. Which EC50 did it give?
The EC50 was < 126 nM.

`COc1ccc(S(=O)(=O)N2C[C@H](C)N(S(=O)(=O)c3ccc4c(c3)OCCO4)C[C@@H]2C)cc1OC` [Example 71, (2S,5S)-1-{[3,4-bis(methyloxy)phenyl]sulfonyl}-4-(2,3-dihydro-1,4-benzodioxin-6-ylsulfonyl)-2,5-dimethylpiperazine] was tested. Which Emax did it give?
Its Emax is 76 to 100%.

And the EC50?
Its EC50 is 126 to 1000 nM.

Which results are given for `COc1ccc(S(=O)(=O)N2C[C@@H](C)N(S(=O)(=O)c3ccc(OC)c(OC)c3)[C@@H](C)C2)cc1OC` [Example 20, 1,4-bis{[3,4-bis(methyloxy)phenyl]sulfonyl}-2,6-cis-dimethylpiperazine]?
EC50: 1260 to 10000 nM; % Max: ** (“**” = 51% to 75%)

What does the source list for `COc1ccc(S(=O)(=O)N2C[C@H](C)N(S(=O)(=O)c3ccc(OC)c(OC)c3)C[C@H]2C)cc1OC` [Example 22, trans-1,4-bis{[3,4-bis(methyloxy)phenyl]sulfonyl}-2,5-dimethylpiperazine]?
Emax: 51 to 75%; EC50: 1260 to 10000 nM

How did the Emax turn out when `COc1ccc(S(=O)(=O)N(C)CCN(C)S(=O)(=O)c2ccc(OC)c(OC(F)(F)F)c2)cc1OC` [Example 31, N-methyl-N-{2-[methyl({4-(methyloxy)-3 [(trifluoromethyl)oxy]phenyl}sulfonyl)amino]ethyl}-3,4-bis(methyloxy)benzenesulfonamide] was run?
The Emax was 0 to 50%.

And the EC50?
The EC50 was 126 to 1000 nM.

Which results are given for `CCN(C[C@H](C)N(CC)S(=O)(=O)c1ccc(OC)c(OC)c1)S(=O)(=O)c1ccc(OC)c(OC)c1` [Example 74, N,N′-(2S)-1,2-propanediylbis[N-ethyl-3,4-bis(methyloxy)benzenesulfonamide]]?
Emax: 76 to 100%; EC50: 126 to 1000 nM

For `COc1ccc(S(=O)(=O)NCC(C)N(C)S(=O)(=O)c2ccc(OC)c(OC)c2)cc1OC` (stereo not shown) [Example 66, N-[2-({[3,4-bis(methyloxy)phenyl]sulfonyl}amino)-1-methylethyl]-N-methyl-3,4-bis(methyloxy)benzenesulfonamide], which Emax is on record?
Its Emax is 51 to 75%.

And the EC50?
The EC50 was 1260 to 10000 nM.

With `CCCN([C@H]1CCN(S(=O)(=O)c2ccc(OC)c(OC)c2)C1)S(=O)(=O)c1ccc(OC)c(OC)c1` [Example 61, N-((3S)-1-{[3,4-bis(methyloxy)phenyl]sulfonyl}-3-pyrrolidinyl)-3,4-bis(methyloxy)-N-propylbenzenesulfonamide] as the compound, how does the Emax read?
The Emax was 76 to 100%.

What about the EC50 of the same compound?
The EC50 was 1260 to 10000 nM.

Which Emax does the source give for `COc1ccc(S(=O)(=O)N2CCCN(S(=O)(=O)c3ccc(OC)c(OC(F)(F)F)c3)CC2)cc1OC` [Example 30, 1-{[3,4-bis(methyloxy)phenyl]sulfonyl}-4-({4-(methyloxy)-3-[(trifluoromethyl)oxy]phenyl}sulfonyl)hexahydro-1H-1,4-diazepine] here?
The Emax was 76 to 100%.

And the EC50?
Its EC50 is 1260 to 10000 nM.

`COc1ccc(S(=O)(=O)N2C[C@@H](C)N(S(=O)(=O)c3ccc4oc(=O)ccc4c3)[C@@H](C)C2)cc1OC` [Example 37, 6-[(4-{[3,4-bis(methyloxy)phenyl]sulfonyl}-2,6-cis-dimethyl-1-piperazinyl)sulfonyl]-2H-chromen-2-one] was tested. Which Emax did it give?
The Emax was 0 to 50%.

And the EC50?
Its EC50 is 1260 to 10000 nM.

How did the EC50 turn out when `COc1ccc(S(=O)(=O)N2CCN(S(=O)(=O)c3ccc(OC)c(OC)c3)CC2)cc1F` [Example 1, 1-{[3,4-bis(methyloxy)phenyl]sulfonyl}-4-{[3-fluoro-4-(methyloxy)phenyl]sulfonyl}piperazine] was run?
The EC50 was 126 to 1000 nM.

What does the source list for `COc1ccc(S(=O)(=O)N2CCCN(S(=O)(=O)c3ccc(OC)c(OC)c3)CC2)cc1F` [Example 7, 1-{[3,4-bis(methyloxy)phenyl]sulfonyl}-4-{[3-fluoro-4-(methyloxy)phenyl]sulfonyl}hexahydro-1H-1,4-diazepine]?
Emax: 0 to 50%; EC50: 1260 to 10000 nM

What does the source list for `COc1ccc(S(=O)(=O)NCCNS(=O)(=O)c2ccc(OC)c(OC)c2)cc1OC` [Example 26, N,N′-1,2-ethanediylbis[3,4-bis(methyloxy)benzenesulfonamide]]?
Emax: 76 to 100%; EC50: 1260 to 10000 nM

With `COc1ccc(S(=O)(=O)N2C[C@H](C)N(S(=O)(=O)c3ccc4c(c3)OCO4)C[C@@H]2C)cc1OC` [Example 70, (2S,5S)-1-(1,3-benzodioxol-5-ylsulfonyl)-4-{[3,4-bis(methyloxy)phenyl]sulfonyl}-2,5-dimethylpiperazine] as the compound, how does the Emax read?
Its Emax is > 100%.

And the EC50?
The EC50 was 126 to 1000 nM.

`COc1ccc(S(=O)(=O)N2CCC(NS(=O)(=O)c3cccc4cccnc34)C2)cc1OC` (stereo not shown) [Example 16, N-(1-{[3,4-bis(methyloxy)phenyl]sulfonyl}-3-pyrrolidinyl)-8-quinolinesulfonamide] was tested. Which EC50 did it give?
Its EC50 is 1260 to 10000 nM.

From patent publication US20090069302A1 (SMITHKLINE BEECHAM CORPORATION, priority 2006, published 2009)
